The nature of the data set: 4-MU partitioning assay, backward transfer partitioning (backward extraction; BE), effect of aqueous phase surfactants on 4-MU containment. Format: physicochemical. To be noted: surfactant at 1.5 times its CMC; oil phase 5 cSt silicone oil with 0.1% w/v Triton X-15; lower signal = better 4-MU retention. The text has this:
The efficacy of different surfactants (detergents) in containing 4-MU (or derivatives) within an aqueous phase may, for example, be evaluated using a partitioning assay. Parameters that may be varied in the assay for evaluation of surfactants in aqueous containment of 4-MU (or derivatives) include, but are not limited to, the pH of the aqueous phase solution, and the critical micelle concentration of the surfactant.
The assay format includes forward transfer partitioning (forward extraction; FE) of 4-MU from an aqueous phase to an oil phase and backward transfer partitioning (backward extraction; BE) of 4-MU from an oil phase to an aqueous phase. The assay is performed in 96-well microtiter substrates; clear 96-well substrates (e.g., Costar 3631) for evaluation of forward transfer partitioning with bottom probe fluorescence detection and solid black 96-well substrates (e.g., Costar 3915) for evaluation of backward transfer partitioning with top probe fluorescence detection. A BioTek Synergy HT instrument with 3 mm top probe and 5 mm bottom probe, may, for example, be used for fluorescence measurements. […]

The results in this text go back to US9513253B2, “Droplet actuators and techniques for droplet-based enzymatic assays” (Advanced Liquid Logic, Inc., priority 2011, dated 2016).

For the substance ANAPOE ®-20 (Tween ® 20) [AS17], the “relative fluorescence reading, backward transfer partitioning (BE) of 4-MU” value is recorded as 43,000-44,000 RFU.
